# Values of other authors as cited in patent publication US20080166695A1, “Solution for the storage and perfusion of organs awaiting transplantation” (Sigma-Tau Industrie Farmaceutiche Riunite S.p.A., priority 2001, published 2008).
# Test system: isolated rabbit heart
# Settings: isolated rabbit heart perfused with whole blood with L-carnitine added
structure (smiles),measurement,value
C[N+](C)(C)C[C@H](O)CC(=O)[O-] [L-carnitine],recovery of cardiac functions,protective effect
